# Assay results: patent US12723063B2, “GIPR-agonist compounds” (Eli Lilly and Company, priority 2019, dated 2026)
# *1 amine or outer side, *2 acyl side, *3 side chain or, on linkers, in order; H or OH if unused. Where a SMILES comes first, the peptide text is derived from it. Side-chain parts run from the residue outwards. [ ]: non-standard residue; d: D form. The star is where a group is joined. C20 diacid = O=C(O)CCCCCCCCCCCCCCCCCCC(=O)*; C18 diacid = O=C(O)CCCCCCCCCCCCCCCCC(=O)*; αMePhe(2-F) = C[C@](N)(Cc1ccccc1F)C(=O)O; γGlu = O=C(O)[C@H](CCC(=O)[*:2])N[*:1]; αMeF = C[C@](N)(Cc1ccccc1)C(=O)O; 4Pal = N[C@@H](Cc1ccncc1)C(=O)O; αMeL = CC(C)C[C@](C)(N)C(=O)O; Orn = NCCC[C@H](N)C(=O)O; AEEA = NCCOCCOCC(=O)O; Aib = CC(C)(N)C(=O)O
# Assays:
# human GcgR = biological target: T1, human GcgR (Homo sapiens, UniProt P47871); assay: [125I]-Glucagon binding, SPA with WGA beads, 0.1% bacitracin; conditions: geometric mean, read-out: hGcgR Ki
# T1 construct: expressed in transfected cells; crude membranes
# T1 sequence (P47871 26-477): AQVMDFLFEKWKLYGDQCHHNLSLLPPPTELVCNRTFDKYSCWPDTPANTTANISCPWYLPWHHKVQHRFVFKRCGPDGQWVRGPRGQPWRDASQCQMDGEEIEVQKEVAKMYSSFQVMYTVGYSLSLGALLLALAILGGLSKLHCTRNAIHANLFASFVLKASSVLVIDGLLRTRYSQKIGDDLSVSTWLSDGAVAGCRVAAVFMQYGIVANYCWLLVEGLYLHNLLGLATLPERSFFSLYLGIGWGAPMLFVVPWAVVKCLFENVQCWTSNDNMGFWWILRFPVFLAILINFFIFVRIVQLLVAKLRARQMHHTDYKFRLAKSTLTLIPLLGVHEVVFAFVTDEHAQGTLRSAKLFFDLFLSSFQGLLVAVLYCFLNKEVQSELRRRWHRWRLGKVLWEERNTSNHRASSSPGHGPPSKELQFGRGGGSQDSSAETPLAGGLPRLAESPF
# In short: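 SPA competition binding with WGA beads on crude membranes from HEK293 cells stably expressing hGcgR. Buffer: 25 mM HEPES pH 7.4, 2.5 mM CaCl2, 1 mM MgCl2, 0.1% bacitracin, 0.003% Tween-20; 10-point 3-fold dilutions, NSB with 1 μM Gcg.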
# [1] = biological target: T2, human GLP-1 receptor (GLP-1R) (Homo sapiens, UniProt P43220); assay: cAMP functional assay (HTRF) in HEK293 cells in presence of 0.1% casein; format: cell-based; conditions: HEK293 cells expressing human GLP-1R, geometric mean, read-out: hGLP1R cAMP Rel EC50 nM (SEM, n)
# T2 construct: expressed in transfected cells; host or cells: HEK293
# T2 sequence (P43220 24-463): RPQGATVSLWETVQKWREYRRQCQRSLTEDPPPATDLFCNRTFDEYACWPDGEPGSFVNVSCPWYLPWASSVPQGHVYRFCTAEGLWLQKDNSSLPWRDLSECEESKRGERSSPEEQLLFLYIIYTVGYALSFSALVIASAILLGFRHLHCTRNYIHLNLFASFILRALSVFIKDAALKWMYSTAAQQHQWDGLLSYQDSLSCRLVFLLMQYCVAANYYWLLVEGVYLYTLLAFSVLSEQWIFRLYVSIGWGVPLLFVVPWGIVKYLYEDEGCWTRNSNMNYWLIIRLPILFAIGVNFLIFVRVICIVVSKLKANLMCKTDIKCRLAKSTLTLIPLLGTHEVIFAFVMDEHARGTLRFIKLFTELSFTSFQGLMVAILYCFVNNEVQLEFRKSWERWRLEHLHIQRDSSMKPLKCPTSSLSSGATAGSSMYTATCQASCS
SMILES,Ki (human GcgR) [nM],EC50 [1] [nM]
CC[C@H](C)[C@H](NC(=O)[C@H](CO)NC(=O)[C@H](Cc1ccc(O)cc1)NC(=O)[C@H](CC(=O)O)NC(=O)[C@H](CO)NC(=O)[C@@H](NC(=O)[C@](C)(Cc1ccccc1)NC(=O)[C@@H](NC(=O)CNC(=O)[C@H](CCC(=O)O)NC(=O)C(C)(C)NC(=O)[C@@H](N)Cc1ccc(O)cc1)[C@@H](C)O)[C@@H](C)CC)C(=O)N[C@@H](C)C(=O)N[C@@H](CC(C)C)C(=O)N[C@@H](CC(=O)O)C(=O)N[C@@H](CCCCN)C(=O)N[C@H](C(=O)N[C@@H](Cc1c[nH]cn1)C(=O)N[C@@H](CCC(N)=O)C(=O)NC(C)(C)C(=O)N[C@@H](CCC(=O)O)C(=O)N[C@@H](Cc1ccccc1)C(=O)N[C@H](C(=O)N[C@@H](CC(N)=O)C(=O)N[C@@H](Cc1ccc(O)cc1)C(=O)N[C@@H](CCCCNC(=O)COCCOCCNC(=O)COCCOCCNC(=O)CC[C@H](NC(=O)CCCCCCCCCCCCCCCCCCC(=O)O)C(=O)O)C(=O)N[C@@H](CC(C)C)C(=O)N[C@@H](C)C(=O)NCC(=O)NCC(=O)N1CCC[C@H]1C(=O)N[C@@H](CO)C(=O)N[C@@H](CO)C(=O)NCC(=O)N[C@@H](C)C(=O)N1CCC[C@H]1C(=O)N1CCC[C@H]1C(=O)N1CCC[C@H]1C(=O)N[C@@H](CO)C(N)=O)C(C)C)[C@@H](C)CC [Example 97] (H-Y[Aib]EGT[αMeF]ISDYSIALDKIHQ[Aib]EFVNYK([AEEA-AEEA-γGlu-C20 diacid])LAGGPSSGAPPPS-NH2),77.5,2510
CC[C@H](C)[C@H](NC(=O)[C@H](CO)NC(=O)[C@H](Cc1ccc(O)cc1)NC(=O)[C@H](CC(=O)O)NC(=O)[C@H](CO)NC(=O)[C@@H](NC(=O)[C@](C)(Cc1ccccc1F)NC(=O)[C@@H](NC(=O)CNC(=O)[C@H](CCC(=O)O)NC(=O)C(C)(C)NC(=O)[C@@H](N)Cc1ccc(O)cc1)[C@@H](C)O)[C@@H](C)CC)C(=O)N[C@@H](C)C(=O)N[C@@H](CC(C)C)C(=O)N[C@@H](CC(=O)O)C(=O)N[C@@H](CCCCN)C(=O)N[C@H](C(=O)N[C@@H](Cc1c[nH]cn1)C(=O)N[C@@H](CCC(N)=O)C(=O)NC(C)(C)C(=O)N[C@@H](CCC(=O)O)C(=O)N[C@@H](Cc1ccccc1)C(=O)N[C@H](C(=O)N[C@@H](CC(N)=O)C(=O)N[C@@H](Cc1ccc(O)cc1)C(=O)N[C@@H](CCCCNC(=O)COCCOCCNC(=O)COCCOCCNC(=O)CC[C@H](NC(=O)CCCCCCCCCCCCCCCCCCC(=O)O)C(=O)O)C(=O)N[C@@H](CC(C)C)C(=O)N[C@@H](C)C(=O)NCC(=O)NCC(=O)N1CCC[C@H]1C(=O)N[C@@H](CO)C(=O)N[C@@H](CO)C(=O)NCC(=O)N[C@@H](C)C(=O)N1CCC[C@H]1C(=O)N1CCC[C@H]1C(=O)N1CCC[C@H]1C(=O)N[C@@H](CO)C(N)=O)C(C)C)[C@@H](C)CC [Example 98] (H-Y[Aib]EGT[αMePhe(2-F)]ISDYSIALDKIHQ[Aib]EFVNYK([AEEA-AEEA-γGlu-C20 diacid])LAGGPSSGAPPPS-NH2),38.4,649
CC[C@H](C)[C@H](NC(=O)[C@H](CO)NC(=O)[C@H](Cc1ccc(O)cc1)NC(=O)[C@H](CC(=O)O)NC(=O)[C@H](CO)NC(=O)[C@@H](NC(=O)[C@](C)(Cc1ccccc1F)NC(=O)[C@@H](NC(=O)CNC(=O)[C@H](CCC(=O)O)NC(=O)C(C)(C)NC(=O)[C@@H](N)Cc1ccc(O)cc1)[C@@H](C)O)[C@@H](C)CC)C(=O)N[C@@H](C)C(=O)N[C@@H](CC(C)C)C(=O)N[C@@H](CC(=O)O)C(=O)N[C@@H](CCCCN)C(=O)N[C@H](C(=O)N[C@@H](Cc1c[nH]cn1)C(=O)N[C@@H](CCC(N)=O)C(=O)NC(C)(C)C(=O)N[C@@H](CC(=O)O)C(=O)N[C@@H](Cc1ccccc1)C(=O)N[C@H](C(=O)N[C@@H](CCC(=O)O)C(=O)N[C@@H](Cc1ccc(O)cc1)C(=O)N[C@@H](CCCCNC(=O)COCCOCCNC(=O)COCCOCCNC(=O)CC[C@H](NC(=O)CCCCCCCCCCCCCCCCCCC(=O)O)C(=O)O)C(=O)N[C@@H](CC(C)C)C(=O)N[C@@H](CCC(=O)O)C(=O)NCC(=O)NCC(=O)N1CCC[C@H]1C(=O)N[C@@H](CO)C(=O)N[C@@H](CO)C(=O)NCC(=O)N[C@@H](C)C(=O)N1CCC[C@H]1C(=O)N1CCC[C@H]1C(=O)N1CCC[C@H]1C(=O)N[C@@H](CO)C(N)=O)C(C)C)[C@@H](C)CC [Example 99] (H-Y[Aib]EGT[αMePhe(2-F)]ISDYSIALDKIHQ[Aib]DFVEYK([AEEA-AEEA-γGlu-C20 diacid])LEGGPSSGAPPPS-NH2),174,> 5000
CC[C@H](C)[C@H](NC(=O)[C@H](CCCCN)NC(=O)[C@H](CC(=O)O)NC(=O)[C@H](CC(C)C)NC(=O)[C@](C)(CC(C)C)NC(=O)[C@@H](NC(=O)[C@H](CO)NC(=O)[C@H](Cc1ccc(O)cc1)NC(=O)[C@H](CC(=O)O)NC(=O)[C@H](CO)NC(=O)[C@@H](NC(=O)[C@H](Cc1ccccc1)NC(=O)[C@@H](NC(=O)CNC(=O)[C@H](CCC(=O)O)NC(=O)C(C)(C)NC(=O)[C@@H](N)Cc1ccc(O)cc1)[C@@H](C)O)[C@@H](C)CC)[C@@H](C)CC)C(=O)N[C@@H](Cc1c[nH]cn1)C(=O)N[C@@H](CCC(N)=O)C(=O)NC(C)(C)C(=O)N[C@@H](CCC(=O)O)C(=O)N[C@@H](Cc1ccccc1)C(=O)N[C@H](C(=O)N[C@@H](CCC(=O)O)C(=O)N[C@@H](Cc1ccncc1)C(=O)N[C@@H](CCCCNC(=O)COCCOCCNC(=O)COCCOCCNC(=O)CC[C@H](NC(=O)CCCCCCCCCCCCCCCCCCC(=O)O)C(=O)O)C(=O)N[C@@H](CC(C)C)C(=O)N[C@@H](CCC(=O)O)C(=O)NCC(=O)NCC(=O)N1CCC[C@H]1C(=O)N[C@@H](CO)C(=O)N[C@@H](CO)C(=O)NCC(=O)N[C@@H](C)C(=O)N1CCC[C@H]1C(=O)N1CCC[C@H]1C(=O)N1CCC[C@H]1C(=O)N[C@@H](CO)C(N)=O)C(C)C [Example 100] (H-Y[Aib]EGTFISDYSI[αMeL]LDKIHQ[Aib]EFVE[4Pal]K([AEEA-AEEA-γGlu-C20 diacid])LEGGPSSGAPPPS-NH2),572,> 5000
CC[C@H](C)[C@H](NC(=O)[C@H](CCCN)NC(=O)[C@H](CC(=O)O)NC(=O)[C@H](CC(C)C)NC(=O)[C@](C)(CC(C)C)NC(=O)[C@@H](NC(=O)[C@H](CO)NC(=O)[C@H](Cc1ccc(O)cc1)NC(=O)[C@H](CC(=O)O)NC(=O)[C@H](CO)NC(=O)[C@@H](NC(=O)[C@H](Cc1ccccc1)NC(=O)[C@@H](NC(=O)CNC(=O)[C@H](CCC(=O)O)NC(=O)C(C)(C)NC(=O)[C@@H](N)Cc1ccc(O)cc1)[C@@H](C)O)[C@@H](C)CC)[C@@H](C)CC)C(=O)N[C@@H](Cc1c[nH]cn1)C(=O)N[C@@H](CCC(N)=O)C(=O)NC(C)(C)C(=O)N[C@@H](CC(=O)O)C(=O)N[C@@H](Cc1ccccc1)C(=O)N[C@H](C(=O)N[C@H](CCC(=O)O)C(=O)N[C@@H](Cc1ccc(O)cc1)C(=O)N[C@@H](CCCCNC(=O)COCCOCCNC(=O)COCCOCCNC(=O)CC[C@H](NC(=O)CCCCCCCCCCCCCCCCCCC(=O)O)C(=O)O)C(=O)N[C@@H](CC(C)C)C(=O)N[C@@H](CCC(=O)O)C(=O)NCC(=O)NCC(=O)N1CCC[C@H]1C(=O)N[C@@H](CO)C(=O)N[C@@H](CO)C(=O)NCC(=O)N[C@@H](C)C(=O)N1CCC[C@H]1C(=O)N1CCC[C@H]1C(=O)N1CCC[C@H]1C(=O)N[C@@H](CO)C(N)=O)C(C)C [Example 101],> 961,> 5000
CC[C@H](C)[C@H](NC(=O)[C@H](CCCN)NC(=O)[C@H](CC(=O)O)NC(=O)[C@H](CC(C)C)NC(=O)[C@](C)(CC(C)C)NC(=O)[C@@H](NC(=O)[C@H](CO)NC(=O)[C@H](Cc1ccc(O)cc1)NC(=O)[C@H](CC(=O)O)NC(=O)[C@H](CO)NC(=O)[C@@H](NC(=O)[C@H](Cc1ccccc1)NC(=O)[C@@H](NC(=O)CNC(=O)[C@H](CCC(=O)O)NC(=O)C(C)(C)NC(=O)[C@@H](N)Cc1ccc(O)cc1)[C@@H](C)O)[C@@H](C)CC)[C@@H](C)CC)C(=O)N[C@@H](Cc1c[nH]cn1)C(=O)N[C@@H](CCC(N)=O)C(=O)NC(C)(C)C(=O)N[C@@H](CCC(=O)O)C(=O)N[C@@H](Cc1ccccc1)C(=O)N[C@H](C(=O)N[C@H](CCC(=O)O)C(=O)N[C@@H](Cc1ccc(O)cc1)C(=O)N[C@@H](CCCCNC(=O)COCCOCCNC(=O)COCCOCCNC(=O)CC[C@H](NC(=O)CCCCCCCCCCCCCCCCCCC(=O)O)C(=O)O)C(=O)N[C@@H](CC(C)C)C(=O)N[C@@H](CCC(=O)O)C(=O)NCC(=O)NCC(=O)N1CCC[C@H]1C(=O)N[C@@H](CO)C(=O)N[C@@H](CO)C(=O)NCC(=O)N[C@@H](C)C(=O)N1CCC[C@H]1C(=O)N1CCC[C@H]1C(=O)N1CCC[C@H]1C(=O)N[C@@H](CO)C(N)=O)C(C)C [Example 102] (H-Y[Aib]EGTFISDYSI[αMeL]LD[Orn]IHQ[Aib]EFV[dE]YK([AEEA-AEEA-γGlu-C20 diacid])LEGGPSSGAPPPS-NH2),> 961,> 5000
CC[C@H](C)[C@H](NC(=O)[C@H](CCCN)NC(=O)[C@H](CC(=O)O)NC(=O)[C@H](CC(C)C)NC(=O)[C@](C)(CC(C)C)NC(=O)[C@@H](NC(=O)[C@H](CO)NC(=O)[C@H](Cc1ccc(O)cc1)NC(=O)[C@H](CC(=O)O)NC(=O)[C@H](CO)NC(=O)[C@@H](NC(=O)[C@H](Cc1ccccc1)NC(=O)[C@@H](NC(=O)CNC(=O)[C@H](CCC(=O)O)NC(=O)C(C)(C)NC(=O)[C@@H](N)Cc1ccc(O)cc1)[C@@H](C)O)[C@@H](C)CC)[C@@H](C)CC)C(=O)N[C@@H](Cc1c[nH]cn1)C(=O)N[C@@H](CCC(N)=O)C(=O)NC(C)(C)C(=O)N[C@@H](CC(=O)O)C(=O)N[C@@H](Cc1ccccc1)C(=O)N[C@H](C(=O)N[C@@H](CCC(=O)O)C(=O)N[C@@H](Cc1ccc(O)cc1)C(=O)N[C@@H](CCCCNC(=O)COCCOCCNC(=O)COCCOCCNC(=O)CC[C@H](NC(=O)CCCCCCCCCCCCCCCCC(=O)O)C(=O)O)C(=O)N[C@@H](CC(C)C)C(=O)N[C@@H](CCC(=O)O)C(=O)NCC(=O)NCC(=O)N1CCC[C@H]1C(=O)N[C@@H](CO)C(=O)N[C@@H](CO)C(=O)NCC(=O)N[C@@H](C)C(=O)N1CCC[C@H]1C(=O)N1CCC[C@H]1C(=O)N1CCC[C@H]1C(=O)N[C@@H](CO)C(N)=O)C(C)C [Example 103] (H-Y[Aib]EGTFISDYSI[αMeL]LD[Orn]IHQ[Aib]DFVEYK([AEEA-AEEA-γGlu-C18 diacid])LEGGPSSGAPPPS-NH2),> 960,> 5000
